Experimental data published in the supplement of paper PMC11061612.

Key:
[1] = compound: CC(=O)Nc1cccc(-n2c(=O)n(C3CC3)c(=O)c3c(Nc4ccc(I)cc4F)n(C)c(=O)c(C)c32)c1 [Trametinib]; details: max 1 µM
Method in brief: (§1)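 Viability was measured with CellTiter-Glo 2.0 luminescence after 72 hours of dosing at a final DMSO of typically 0.2%, and scaled between blank-well and DMSO-well means. Beforehand, cancer cell lines sat 24 hours at 37°C and 5% CO2 in 1536-well plates in 7.5 μl DMEM/F12 or RPMI with 10% FBS. A non-linear mixed effects model fitted two-parameter logistic curves to the dose responses. The single-agent IC50 comes from these fits.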

[2] = compound: Cc1c2c(nn1C)CSCc1cc(n(C)n1)CSc1cc(c3ccccc3c1)OCCCc1c(C(=O)O)n(C)c3c-2c(Cl)ccc13 [AZD5991]; details: max 1 µM
Method in brief: as §1

[3] = compound: Cn1cnc2c(F)c(Nc3ccc(Br)cc3Cl)c(C(=O)NOCCO)cc21 [Selumetinib]; details: max 10 µM
Method in brief: as §1

[4] = compound: CC(C)n1c(=O)n(C)c2cnc3cc(F)c(-c4ccc(OCCCN5CCCCC5)nc4)cc3c21 [AZD1390]; details: max 0.3 µM
Method in brief: as §1

[5] = compound: Cc1nc(-c2cn3c(n2)-c2ccc(-c4cnn(C(C)(C)C(N)=O)c4)cc2OCC3)n(C(C)C)n1 [Taselisib]; details: max 10 µM
Method in brief: as §1

[6] = compound: COc1cc2ncnc(Nc3ccc(F)c(Cl)c3)c2cc1OCCCN1CCOCC1 [Gefitinib]; details: max 10 µM
Method in brief: as §1

[7] = compound: CCN(CCO)CCCOc1ccc2c(Nc3cc(CC(=O)Nc4cccc(F)c4)[nH]n3)ncnc2c1 [AZD2811]; details: max 1 µM
Method in brief: as §1

[8] = compound: C1CN(CCC1(C(=O)N[C@@H](CCO)C2=CC=C(C=C2)Cl)N)C3=NC=NC4=C3C=CN4 [Capivasertib]; details: max 10 µM
Method in brief: as §1

[9] = compound: CC1=CN2[C@@H](C1)C=NC3=CC(=C(C=C3C2=O)OC)OCCCCCOC4=C(C=C5C(=C4)N=C[C@@H]6CC(=CN6C5=O)C)OC [SG3199]; details: max 0.001 µM
Method in brief: as §1

[10] = compound: O=C(c1cc(Cc2n[nH]c(=O)c3ccccc23)ccc1F)N1CCN(C(=O)C2CC2)CC1 [Olaparib]; details: max 10 µM
Method in brief: as §1

[11] = compound: Cc1cc2ncnn2cc1Nc1ncc2c(n1)n(C1CCOCC1)c(=O)n2C [AZD7648]; details: max 10 µM
Method in brief: as §1

[12] = compound: COc1cc(Nc2ncc3c(n2)-c2ccc(Cl)cc2C(c2c(F)cccc2OC)=NC3)ccc1C(=O)O [Alisertib]; details: max 10 µM
Method in brief: as §1

[13] = compound: CC1(C)CCC(CN2CCN(c3ccc(C(=O)NS(=O)(=O)c4ccc(NCC5CCOCC5)c([N+](=O)[O-])c4)c(Oc4cnc5[nH]ccc5c4)c3)CC2)=C(c2ccc(Cl)cc2)C1 [Venetoclax]; details: max 1 µM
Method in brief: as §1

[14] = compound: COc1nnc2ccc(N3CCC(c4ccc(OCCN5CCN(C)C(=O)[C@H]5C)cc4)CC3)nn12 [AZD5153]; details: max 1 µM
Method in brief: as §1

[15] = compound: CCc1c2c(nc3ccc(O)cc13)-c1cc3c(c(=O)n1C2)COC(=O)[C@]3(O)CC [SN-38]; details: max 0.3 µM
Method in brief: as §1

[16] = compound: COc1cccc2c1C(=O)c1c(O)c3c(c(O)c1C2=O)C[C@@](O)(C(=O)CO)C[C@@H]3O[C@H]1C[C@H](N)[C@H](O)[C@H](C)O1 [Doxorubicin]; details: max 1 µM
Method in brief: as §1

[17] = compound: C[C@@H](c1ccc2nccn2c1)n1nnc2ncc(-c3cnn(C)c3)nc21 [Savolitinib]; details: max 1 µM
Method in brief: as §1

[18] = compound: CN(CC[C@H](CSC1=CC=CC=C1)NC2=C(C=C(C=C2)S(=O)(=O)NC(=O)C3=CC=C(C=C3)N4CCC(CC4)[C@H](C5=CC=CC=C5C6=CC=C(C=C6)Cl)O)S(=O)(=O)C(F)(F)F)CCO [AZD4320]; details: max 1 µM
Method in brief: as §1

[19] = compound: C[C@@H]1COCCN1C2=NC(=NC(=C2)C3(CC3)[S@](=N)(=O)C)C4=C5C=CNC5=NC=C4 [AZD6738]; details: max 10 µM
Method in brief: as §1

[20] = compound: C[C@@H](Nc1cc(F)cc(F)c1)c1cc(C(=O)N(C)C)cc2c(=O)cc(N3CCOCC3)oc12 [AZD8186]; details: max 3 µM
Method in brief: as §1

[21] = compound: C[C@@H](Oc1cc(-c2cnn(C3CCNCC3)c2)cnc1N)c1c(Cl)ccc(F)c1Cl [Crizotinib]; details: max 10 µM
Method in brief: as §1

[22] = compound: CC1=C(C(=CC=C1)Cl)NC(=O)C2=CN=C(S2)NC3=CC(=NC(=N3)C)N4CCN(CC4)CCO [Dasatinib]; details: max 2 µM
Method in brief: as §1

[23] = compound: CN(C)CCCOc1ccc(-c2ccc3ncc4c(c3c2)n(C2CCOCC2)c(=O)n4C)cn1 [AZD0156]; details: max 3 µM
Method in brief: as §1

[24] = compound: C=CCn1c(=O)c2cnc(Nc3ccc(N4CCN(C)CC4)cc3)nc2n1-c1cccc(C(C)(C)O)n1 [AZD1775]; details: max 3 µM
Method in brief: as §1

[25] = compound: CS(=O)(=O)CCNCc1ccc(-c2ccc3ncnc(Nc4ccc(OCc5cccc(F)c5)c(Cl)c4)c3c2)o1 [Lapatinib]; details: max 10 µM
Method in brief: as §1

[26] = compound: COc1cccc(OCCCN)c1-c1cc(Nc2cnc(C#N)cn2)n[nH]1 [Prexasertib]; details: max 1 µM
Method in brief: as §1

[27] = compound: CC(=O)c1c(C)c2cnc(Nc3ccc(N4CCNCC4)cn3)nc2n(C2CCCC2)c1=O [Palbociclib]; details: max 10 µM
Method in brief: as §1

Cell Line	IC50, cell viability 72 h [1]	IC50, cell viability 72 h [2]	IC50, cell viability 72 h [3]	IC50, cell viability 72 h [4]	IC50, cell viability 72 h [5]	IC50, cell viability 72 h [6]	IC50, cell viability 72 h [7]	IC50, cell viability 72 h [8]	IC50, cell viability 72 h [9]	IC50, cell viability 72 h [10]	IC50, cell viability 72 h [11]	IC50, cell viability 72 h [12]	IC50, cell viability 72 h [13]	IC50, cell viability 72 h [14]	IC50, cell viability 72 h [15]	IC50, cell viability 72 h [16]	IC50, cell viability 72 h [17]	IC50, cell viability 72 h [18]	IC50, cell viability 72 h [19]	IC50, cell viability 72 h [20]	IC50, cell viability 72 h [21]	IC50, cell viability 72 h [22]	IC50, cell viability 72 h [23]	IC50, cell viability 72 h [24]	IC50, cell viability 72 h [25]	IC50, cell viability 72 h [26]	IC50, cell viability 72 h [27]
A704 (Kidney Carcinoma)	> 1 µM	> 1 µM	> 10 µM	> 0.3 µM	> 10 µM	> 10 µM	> 1 µM	> 10 µM	> 0.001 µM	> 10 µM	> 10 µM	5.35 µM	> 1 µM	0.538 µM	0.274 µM	> 1 µM	> 1 µM	> 1 µM	> 10 µM	1.54 µM	> 10 µM	0.11 µM	> 3 µM	2.51 µM	8.79 µM	> 1 µM	> 10 µM
BT-20 (Breast Carcinoma)	0.202 µM	> 1 µM	> 10 µM	> 0.3 µM	0.297 µM	> 10 µM	> 1 µM	1.21 µM	> 0.001 µM	> 10 µM	> 10 µM	9.86 µM	> 1 µM	> 1 µM	0.0577 µM	> 1 µM	> 1 µM	> 1 µM	> 10 µM	> 3 µM	> 10 µM	> 2 µM	> 3 µM	1.44 µM	> 10 µM	0.319 µM	> 10 µM
BV-173 (Chronic Myelogenous Leukemia)	0.0572 µM	0.0306 µM	2.33 µM	> 0.3 µM	> 10 µM	> 10 µM	0.00695 µM	4.14 µM	> 0.001 µM	3.25 µM	> 10 µM	0.0385 µM	0.0504 µM	0.0651 µM	0.00142 µM	0.0465 µM	> 1 µM	0.00526 µM	0.26 µM	> 3 µM	0.497 µM	< 0.002 µM	> 3 µM	0.294 µM	4.02 µM	0.00479 µM	3.94 µM
DG-75 (Burkitt's Lymphoma)	> 1 µM	> 1 µM	> 10 µM	> 0.3 µM	> 10 µM	> 10 µM	> 1 µM	> 10 µM	> 0.001 µM	> 10 µM	> 10 µM	> 10 µM	> 1 µM	0.0244 µM	0.0387 µM	0.453 µM	> 1 µM	> 1 µM	1.39 µM	> 3 µM	6.98 µM	> 2 µM	> 3 µM	0.424 µM	8.87 µM	0.0335 µM	1.25 µM
